# In ChEMBL document CHEMBL2390853, “The products of the reaction between 6-amine-1,3-dimethyl uracil and bis-chalcones induce cytotoxicity with massive vacuolation in HeLa cervical cancer cell line” (Eur J Med Chem, 2013):
# The source made the active and inactive calls. No cut-off for these calls is given here.
# Assays:
# [1] = tested on: HeLa; assay: Cytotoxicity against human HeLa cells assessed as cell viability at 50 uM after 3 hrs; assay type: cell-based
# [2] = tested on: HeLa; assay: Cell cycle arrest in human HeLa cells assessed as accumulation at sub G1 phase at 0.25 uM after 48 to 72 hrs by propidium iodide staining-based FACS flow cytometric analysis; assay type: functional
# [3] = tested on: HeLa; assay: Induction of apoptosis in human HeLa cells assessed as change in procaspase-3 expression at 0.25 uM after 24 hrs by Western blot analysis; assay type: functional, cell-based
# [4] = tested on: HeLa; assay: Induction of apoptosis in human HeLa cells assessed as DNA fragmentation at 0.25 uM after 48 hrs by TUNEL assay; assay type: functional, cell-based
# [5] = tested on: HeLa; assay: Induction of apoptosis in human HeLa cells; assay type: functional, cell-based
# [6] = tested on: HeLa; assay: Induction of apoptosis in human HeLa cells assessed as change in p53 expression at 0.25 uM after 24 hrs by Western blot analysis; assay type: functional, cell-based
# [7] = tested on: HeLa; assay: Induction of apoptosis in human HeLa cells assessed as change in Bax expression at 0.25 uM after 24 hrs by Western blot analysis; assay type: functional, cell-based
# [8] = tested on: HeLa; assay: Cell cycle arrest in human HeLa cells assessed as accumulation at polyploidy region at 0.25 uM after 48 to 72 hrs by propidium iodide staining-based FACS flow cytometric analysis; assay type: functional
# [9] = tested on: HeLa; assay: Cell cycle arrest in human HeLa cells assessed as accumulation at G2/M phase at 0.25 uM after 12 hrs by propidium iodide staining-based FACS flow cytometric analysis; assay type: functional
# [10] = tested on: SW480; assay: Cytotoxicity against human SW480 cells assessed as growth inhibition at 0.25 to 100 uM after 48 hrs by MTT assay; assay type: functional, cell-based
# [11] = tested on: SW-620; assay: Cytotoxicity against human SW620 cells assessed as growth inhibition at 0.25 to 100 uM after 48 hrs by MTT assay; assay type: functional, cell-based
# [12] = tested on: CALO; assay: Cytotoxicity against human CALO cells assessed as growth inhibition at 0.25 to 100 uM after 48 hrs by MTT assay; assay type: functional, cell-based
# [13] = tested on: C33; assay: Cytotoxicity against human C33 cells assessed as growth inhibition at 0.25 to 100 uM after 48 hrs by MTT assay; assay type: functional, cell-based
# [14] = tested on: MCF7; assay: Cytotoxicity against human MCF7 cells assessed as growth inhibition at 0.25 to 100 uM after 48 hrs by MTT assay; assay type: functional, cell-based
# [15] = tested on: HeLa; assay: Induction of cytoplasmic vacuolation in human HeLa cells; assay type: functional, cell-based
# [16] = tested on: HeLa; assay: Cytotoxicity against human HeLa cells assessed as growth inhibition at 0.25 to 100 uM after 48 hrs by MTT assay; assay type: functional, cell-based
# [17] = Cytotoxicity against human HEK293Q cells assessed as growth inhibition at 0.25 to 100 uM after 48 hrs by MTT assay; assay type: cell-based
# [18] = tested on: K562; assay: Cytotoxicity against human K562 cells assessed as growth inhibition at 0.25 to 100 uM after 48 hrs by MTT assay; assay type: functional, cell-based
# [19] = tested on: MCF7; assay: Cytotoxicity against human MCF7 cells assessed as growth inhibition after 48 hrs by MTT assay; assay type: functional, cell-based; details: MCF7, 48 h
# [20] = tested on: K562; assay: Cytotoxicity against human K562 cells assessed as growth inhibition after 48 hrs by MTT assay; assay type: functional, cell-based; details: K562, 48 h
# [21] = tested on: SW-620; assay: Cytotoxicity against human SW620 cells assessed as growth inhibition after 48 hrs by MTT assay; assay type: functional, cell-based; details: SW-620, 48 h
# [22] = tested on: SW480; assay: Cytotoxicity against human SW480 cells assessed as growth inhibition after 48 hrs by MTT assay; assay type: functional, cell-based; details: SW480, 48 h
# [23] = tested on: HeLa; assay: Cytotoxicity against human HeLa cells assessed as growth inhibition after 48 hrs by MTT assay; assay type: functional, cell-based
# [24] = Cytotoxicity against human C33 cells assessed as growth inhibition after 48 hrs by MTT assay; assay type: functional, cell-based; details: C33, 48 h
# [25] = Cytotoxicity against human HEK293Q cells assessed as growth inhibition after 48 hrs by MTT assay; assay type: cell-based
# [26] = Cytotoxicity against human CALO cells assessed as growth inhibition after 48 hrs by MTT assay; assay type: functional, cell-based
# [27] = tested on: HeLa; assay: Induction of autophagy in human HeLa cells assessed as large vacuole formation at 13 uM after 24 hrs by inverted microscopic analysis in presence of spautin-1; assay type: functional, cell-based
# [28] = tested on: HeLa; assay: Cell cycle arrest in human HeLa cells assessed as effect on G2/M phase at 13 uM after 12 to 72 hrs by propidium iodide staining-based FACS flow cytometric analysis; assay type: functional
# [29] = tested on: HeLa; assay: Cytotoxicity against human HeLa cells assessed as cell viability at 13 uM after 48 hrs by MTT assay in presence of gallic acid; assay type: functional, cell-based
# [30] = tested on: HeLa; assay: Induction of cytoplasmic vacuolation in human HeLa cells at 13 uM after 24 hrs by neutral red staining-based light microscopic analysis; assay type: functional, cell-based
# [31] = tested on: HeLa; assay: Induction of autophagy in human HeLa cells assessed as increase in conversion of LC3B-1 to LC3B-2 at 13 uM after 24 hrs by Western blot analysis; assay type: functional, cell-based
# [32] = tested on: HeLa; assay: Induction of apoptosis in human HeLa cells assessed as change in Bax expression at 2.5 to 15 uM after 24 hrs by Western blot analysis; assay type: functional, cell-based
# [33] = tested on: HeLa; assay: Cell cycle arrest in human HeLa cells assessed as increase in accumulation at G1 phase at 13 uM after 48 to 72 hrs by propidium iodide staining-based FACS flow cytometric analysis; assay type: functional
# [34] = tested on: HeLa; assay: Cell cycle arrest in human HeLa cells assessed as accumulation at sub G1 phase at 13 uM after 72 hrs by propidium iodide staining-based FACS flow cytometric analysis; assay type: functional
# [35] = tested on: HeLa; assay: Induction of cytoplasmic vacuolation in human HeLa cells at 13 uM after 24 hrs by hematoxylin staining-based light microscopic analysis; assay type: functional, cell-based
# [36] = tested on: HeLa; assay: Induction of apoptosis in human HeLa cells assessed as DNA fragmentation at 13 uM after 48 hrs by TUNEL assay; assay type: functional, cell-based
# [37] = tested on: HeLa; assay: Induction of necrosis in human HeLa cells assessed as inhibition of cell viability at 13 uM after 24 to 48 hrs by tryphan blue exclusion assay; assay type: functional, cell-based
# [38] = tested on: HeLa; assay: Induction of apoptosis in human HeLa cells assessed as change in procaspase-3 expression at 2.5 to 15 uM after 24 hrs by Western blot analysis; assay type: functional, cell-based
# [39] = tested on: HeLa; assay: Induction of autophagy in human HeLa cells assessed as increase in conversion of LC3B-1 to LC3B-2 at 13 uM after 24 hrs by Western blot analysis in presence of spautin-1; assay type: functional, cell-based
# [40] = tested on: HeLa; assay: Cytotoxicity against human HeLa cells assessed as cell viability at 13 uM after 24 hrs by MTT assay in presence of spautin-1; assay type: functional, cell-based
# [41] = tested on: HeLa; assay: Induction of necrosis in human HeLa cells at 13 uM after 24 to 48 hrs by LDH release assay; assay type: functional, cell-based
# [42] = tested on: HeLa; assay: Induction of apoptosis in human HeLa cells assessed as change in p53 expression at 2.5 to 15 uM after 24 hrs by Western blot analysis; assay type: functional, cell-based
# [43] = tested on: HeLa; assay: Induction of apoptosis in human HeLa cells assessed as change in Bcl-2 expression at 2.5 to 15 uM after 24 hrs by Western blot analysis; assay type: functional, cell-based
# [44] = tested on: HeLa; assay: Induction of cytoplasmic vacuolation in human HeLa cells assessed as change in cell morphology at 13 uM after 24 hrs by hematoxylin staining-based light microscopic analysis in presence of cycloheximide; assay type: functional
# [45] = tested on: HeLa; assay: Induction of necrosis in human HeLa cells assessed as inhibition of cell viability at 13 uM after 24 to 48 hrs by MTT assay; assay type: functional, cell-based
# [46] = tested on: HeLa; assay: Cell cycle arrest in human HeLa cells assessed as decrease in reduction in cells at S phase at 13 uM after 72 hrs by propidium iodide staining-based FACS flow cytometric analysis; assay type: functional
# [47] = tested on: HeLa; assay: Induction of autophagy in human HeLa cells assessed as increase in conversion of LC3B-1 to LC3B-2 at 10 uM after 3 hrs by Western blot analysis; assay type: functional, cell-based
smiles,measurement,setting,value
C[C@@H]1C[C@@H]([C@H](O)CC2CC(=O)NC(=O)C2)C(=O)[C@@H](C)C1 [CYCLOHEXIMIDE],Activity,[1],Non-toxic
CC(=O)O[C@H]1C(=O)[C@@]2(C)[C@H]([C@H](OC(=O)c3ccccc3)[C@]3(O)C[C@H](OC(=O)[C@H](O)[C@@H](NC(=O)c4ccccc4)c4ccccc4)C(C)=C1C3(C)C)[C@]1(OC(C)=O)CO[C@@H]1C[C@@H]2O,Activity,[2],Active
same,Activity,[3],inactive
same,Activity,[4],Active
same,Activity,[5],Active
same,Activity,[6],inactive
same,Activity,[7],inactive
same,Activity,[8],Active
same,Activity,[9],Active
Cn1c(=O)c2c(-c3ccsc3)c3c(nc2n(C)c1=O)/C(=C/c1ccsc1)COC3,growth inhibition (GI),[10],inactive
same,growth inhibition (GI),[11],inactive
same,growth inhibition (GI),[12],inactive
same,growth inhibition (GI),[13],inactive
same,growth inhibition (GI),[14],inactive
same,Activity,[15],inactive
same,growth inhibition (GI),[16],inactive
same,Activity,[17],Non-toxic
same,growth inhibition (GI),[18],inactive
Cn1cccc1/C=C1\COCc2c1nc1c(c2-c2cccn2C)c(=O)n(C)c(=O)n1C,IC50,[19],8.37 µM
same,IC50,[20],37.6 µM
same,IC50,[21],14 µM
same,IC50,[22],28.2 µM
same,IC50,[23],19.6 µM
same,IC50,[24],21.6 µM
same,IC50,[25],67.7 µM
same,IC50,[26],43.7 µM
Cn1cccc1/C=C1\CCCc2c1nc1c(c2-c2cccn2C)c(=O)n(C)c(=O)n1C,Activity,[27],inactive
same,Activity,[28],inactive
same,Activity,[29],Active
same,IC50,[19],9.33 µM
same,IC50,[20],10.4 µM
same,Activity,[30],Active
same,IC50,[21],8.54 µM
same,Activity,[31],Active
same,Activity,[32],inactive
same,IC50,[22],4.4 µM
same,Activity,[33],Active
same,Activity,[34],inactive
same,Activity,[35],Active
same,Activity,[36],inactive
same,IC50,[23],13.1 µM
same,Activity,[37],Active
same,Activity,[38],inactive
same,Activity,[39],inactive
same,Activity,[40],Active
same,IC50,[24],22.2 µM
same,IC50,[25],60.1 µM
same,IC50,[26],13.2 µM
same,Activity,[41],Active
same,Activity,[42],inactive
same,Activity,[43],inactive
same,Activity,[44],Active
same,Activity,[45],Active
same,Activity,[46],Active
Cn1c(=O)c2c(-c3ccsc3)c3c(nc2n(C)c1=O)/C(=C/c1ccsc1)CCC3,IC50,[19],> 100 µM
same,IC50,[20],> 100 µM
same,IC50,[21],> 100 µM
same,IC50,[22],> 100 µM
same,IC50,[23],> 100 µM
same,IC50,[24],> 100 µM
same,IC50,[25],> 100 µM
same,Activity,[15],inactive
same,IC50,[26],> 100 µM
Fc1ccc(CNc2ncnc3ccc(F)cc23)cc1,Activity,[47],inactive
